{"source": "patent US20240316054A1", "about": "“NOVEL PLK1 PROTEIN DEGRADATION-INDUCING COMPOUND” (UPPTHERA, INC., priority 2021, published 2024)", "key": {"PLK1": {"biological_target": "T1, PLK1 (Homo sapiens, UniProt P53350)", "T1 construct": "endogenous in cells; host or cells: HeLa cells stably expressing LgBit, with CRISPR/Cas9 knock-in of HiBit at the PLK1 C-terminus", "T1 sequence (P53350 whole entry)": "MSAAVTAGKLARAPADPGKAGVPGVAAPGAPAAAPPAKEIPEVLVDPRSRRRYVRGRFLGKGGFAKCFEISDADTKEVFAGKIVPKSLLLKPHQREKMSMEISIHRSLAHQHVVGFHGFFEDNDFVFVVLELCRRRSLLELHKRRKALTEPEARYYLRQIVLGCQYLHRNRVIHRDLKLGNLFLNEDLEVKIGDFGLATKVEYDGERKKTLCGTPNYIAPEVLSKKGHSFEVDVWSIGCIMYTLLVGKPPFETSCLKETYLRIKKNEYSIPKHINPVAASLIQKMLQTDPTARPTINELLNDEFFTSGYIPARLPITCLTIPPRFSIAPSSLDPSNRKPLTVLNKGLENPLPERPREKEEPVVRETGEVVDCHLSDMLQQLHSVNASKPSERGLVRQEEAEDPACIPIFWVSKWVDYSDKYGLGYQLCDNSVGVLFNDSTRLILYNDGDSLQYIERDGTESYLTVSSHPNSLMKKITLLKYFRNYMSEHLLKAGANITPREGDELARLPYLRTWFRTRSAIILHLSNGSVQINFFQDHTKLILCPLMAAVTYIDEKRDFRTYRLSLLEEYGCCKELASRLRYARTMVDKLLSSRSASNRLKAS", "assay": "Luciferase (HiBit) assay of PLK1 degradation in HeLa LgBit (Plk1-HiBit KI) cells", "type": "cell-based", "details": "for PLK1 (luminescence value): released after thymidine block, compound 300 nM, luminescence at 9 hours, DMSO-only control", "description": "(§1) Cell lines were constructed by transfecting LgBit vector into HeLa and HEK293T cell lines to be stably expressed. Then, gRNA and a donor were created to express the HiBit amino acid sequence behind the C-terminus of the PLK1 and BRD4 proteins contained in each cell, and then inserted into the cells together with a vector capable of expressing CRISPR/Cas9. Only cells that had undergone knock-in after completion of insertion were selected and passaged to be used.\n(§2) Compounds according to Comparative Examples and Examples were completely dissolved in DMSO (Sigma-Aldrich Cat. No. D2438, Lot. No. RNBJ6524) and used in the following experiments. The compound of Comparative Example was the HBL-4 compound disclosed in the document (see Mu et al., Biochem Biophys Res Commun., 2020, 521(4): 833), which targets PLK1 and BRD4 like the compounds of the present invention, and the DMSO-only treatment group was used as the control group.\nAs to HeLa LgBit (Plk1-HiBit KI), cells were released after thymidine block, and then treated with compounds, and the process was as follows. Thymidine (Sigma-Aldrich Cat. No. T9250-5G) was completely dissolved in DW and used in the experiment. For thymidine block, cells were treated with 2 mM thymidine and incubated for 24 hours. For release and chemical treatment, the medium was suctioned and washed with 1×PBS. TyppLE™ was added and the cells were incubated for 5 min in a 37° C. CO2 incubator. Cells neutralized by adding complete medium were counted using the counter. For each well of a 96-well white plate (SPL), 3.3×10^4 cells were seeded in a total culture medium volume of 150 μl and incubated in a CO2 incubator.\n(§3) Each cell line was incubated in a CO2 incubator for 18 hours, and then Endurazine was added to each well to reach 4% of the total volume. Here, the concentration of each compound after the addition was 300 nM for HeLa LgBit (Plk1-HiBit KI) and 100 nM for HEK293T LgBit (BRD4-HiBit KI). Then, the wavelength of the plate reader was set to 470 to 480 nm, and luminescence was tracked in real time."}, "BRD4": {"biological_target": "T2, BRD4 (Homo sapiens, UniProt O60885)", "T2 construct": "endogenous in cells; host or cells: HEK293T cells stably expressing LgBit, with CRISPR/Cas9 knock-in of HiBit at the BRD4 C-terminus", "assay": "Luciferase (HiBit) assay of BRD4 degradation in HEK293T LgBit (BRD4-HiBit KI) cells", "type": "cell-based", "details": "for BRD4 (luminescence value): compound 100 nM, luminescence at 8 hours, DMSO-only control", "description": "as §1, §2\nAs to HEK293T LgBit (BRD4-HiBit KI), 4×10^4 cells were seeded in each well of a 96-well white plate (SPL) and cultured in a total culture medium volume of 150 μl.\nas §3"}}, "data": [{"smiles": "CC[C@@H]1C(=O)N(C)c2cnc(Nc3ccc(C(=O)NC4CCN(C(=O)CCN5CCN(c6cccc7c6C(=O)N(C6CCC(=O)NC6=O)C7=O)CC5)CC4)cc3OC)nc2N1C1CCCC1", "note": "(stereo partly drawn) [Compound 7, 4-(((R)-8-cyclopentyl-7-ethyl-5-methyl-6-oxo-5,6,7,8-tetrahydropteridin-2-yl)amino)-N-(1-(3-(4-(2-(2,6-dioxopiperidin-3-yl)-1,3-dioxoisoindolin-4-yl)piperazin-1-yl)propanoyl)piperidin-4-yl)-3-methoxybenzamide]", "values": [{"measurement": "PLK1 (luminescence value)", "setting": "PLK1", "value": 0.120}, {"measurement": "BRD4 (luminescence value)", "setting": "BRD4", "value": 0.488}]}, {"smiles": "CC[C@@H]1C(=O)N(C)c2cnc(Nc3ccc(C(=O)NCCOCCOCCNc4cccc5c4C(=O)N(C4CCC(=O)NC4=O)C5=O)cc3)nc2N1C1CCCC1", "note": "(stereo partly drawn) [Compound 4, 4-(((R)-8-cyclopentyl-7-ethyl-5-methyl-6-oxo-5,6,7,8-tetrahydropteridin-2-yl)amino)-N-(2-(2-(2-((2-(2,6-dioxopiperidin-3-yl)-1,3-dioxoisoindolin-4-yl)amino)ethoxy)ethoxy)ethyl)benzamide]", "values": [{"measurement": "PLK1 (luminescence value)", "setting": "PLK1", "value": 0.208}, {"measurement": "BRD4 (luminescence value)", "setting": "BRD4", "value": 0.692}]}, {"smiles": "CC[C@@H]1C(=O)N(C)c2cnc(Nc3ccc(C(=O)NCCOCCOCCOCCOCCNc4cccc5c4C(=O)N(C4CCC(=O)NC4=O)C5=O)cc3OC)nc2N1C1CCCC1", "note": "(stereo partly drawn) [Compound 5, 4-(((R)-8-cyclopentyl-7-ethyl-5-methyl-6-oxo-5,6,7,8-tetrahydropteridin-2-yl)amino)-N-(14-((2-(2,6-dioxopiperidin-3-yl)-1,3-dioxoisoindolin-4-yl)amino)-3,6,9,12-tetraoxatetradecyl)-3-methoxybenzamide]", "values": [{"measurement": "PLK1 (luminescence value)", "setting": "PLK1", "value": 0.140}, {"measurement": "BRD4 (luminescence value)", "setting": "BRD4", "value": 0.491}]}, {"smiles": "COc1cc(C(=O)NCCOCCOCCNc2cccc3c2C(=O)N(C2CCC(=O)NC2=O)C3=O)ccc1Nc1ncc2c(n1)N(C1CCCCC1)[C@H](C)C(=O)N2C", "note": "(stereo partly drawn) [Compound 9, 4-(((R)-8-cyclohexyl-5,7-dimethyl-6-oxo-5,6,7,8-tetrahydropteridin-2-yl)amino)-N-(2-(2-(2-((2-(2,6-dioxopiperidin-3-yl)-1,3-dioxoisoindolin-4-yl)amino)ethoxy)ethoxy)ethyl)-3-methoxybenzamide]", "values": [{"measurement": "PLK1 (luminescence value)", "setting": "PLK1", "value": 0.207}, {"measurement": "BRD4 (luminescence value)", "setting": "BRD4", "value": 0.484}]}, {"smiles": "CC[C@@H]1C(=O)N(C)c2cnc(Nc3ccc(C(=O)N[C@H]4CC[C@H](N5CCN(CCOCCNc6cccc7c6C(=O)N(C6CCC(=O)NC6=O)C7=O)CC5)CC4)cc3OC)nc2N1C1CCCC1", "note": "(stereo partly drawn) [Compound 10, 4-(((R)-8-cyclopentyl-7-ethyl-5-methyl-6-oxo-5,6,7,8-tetrahydropteridin-2-yl)amino)-N-((1r,4R)-4-(4-(2-(2-((2-(2,6-dioxopiperidin-3-yl)-1,3-dioxoisoindolin-4-yl)amino)ethoxy)ethyl)piperazin-1-yl)cyclohexyl)-3-methoxybenzamide]", "values": [{"measurement": "PLK1 (luminescence value)", "setting": "PLK1", "value": 0.343}, {"measurement": "BRD4 (luminescence value)", "setting": "BRD4", "value": 0.629}]}, {"smiles": "CC[C@@H]1C(=O)N(C)c2cnc(Nc3ccc(C(=O)N[C@H]4CCN(C(=O)CCC(=O)N5CCN(c6cccc7c6C(=O)N(C6CCC(=O)NC6=O)C7=O)CC5)C4)cc3OC)nc2N1C1CCCC1", "note": "(stereo partly drawn) [Compound 6, 4-(((R)-8-cyclopentyl-7-ethyl-5-methyl-6-oxo-5,6,7,8-tetrahydropteridin-2-yl)amino)-N-((3S)-1-(4-(4-(2-(2,6-dioxopiperidin-3-yl)-1,3-dioxoisoindolin-4-yl)piperazin-1-yl)-4-oxobutanoyl)pyrrolidin-3-yl)-3-methoxybenzamide]", "values": [{"measurement": "PLK1 (luminescence value)", "setting": "PLK1", "value": 0.313}, {"measurement": "BRD4 (luminescence value)", "setting": "BRD4", "value": 0.731}]}, {"smiles": "CC[C@@H]1C(=O)N(C)c2cnc(Nc3ccc(C(=O)NC4CCN(C(=O)CCCNc5cccc6c5C(=O)N(C5CCC(=O)NC5=O)C6=O)CC4)cc3OC)nc2N1C1CCCC1", "note": "(stereo partly drawn) [Compound 8, 4-(((R)-8-cyclopentyl-7-ethyl-5-methyl-6-oxo-5,6,7,8-tetrahydropteridin-2-yl)amino)-N-(1-(4-((2-(2,6-dioxopiperidin-3-yl)-1,3-dioxoisoindolin-4-yl)amino)butanoyl)piperidin-4-yl)-3-methoxybenzamide]", "values": [{"measurement": "PLK1 (luminescence value)", "setting": "PLK1", "value": 0.204}, {"measurement": "BRD4 (luminescence value)", "setting": "BRD4", "value": 0.394}]}, {"smiles": "CC[C@@H]1C(=O)N(C)c2cnc(Nc3ccc(C(=O)NCCOCCOCCNc4cccc5c4C(=O)N(C4CCC(=O)NC4=O)C5=O)cc3OC)nc2N1C1CCCC1", "note": "(stereo partly drawn) [Comparative Example 1, reference compound]", "values": [{"measurement": "PLK1 degradation level", "setting": "PLK1; 300 nM, 9 hours", "value": "≥ 80", "unit": "%"}, {"measurement": "PLK1 (luminescence value)", "setting": "PLK1", "value": 0.148}, {"measurement": "BRD4 degradation level", "setting": "BRD4; 100 nM, 8 hours", "value": "≥ 80", "unit": "%"}, {"measurement": "BRD4 (luminescence value)", "setting": "BRD4", "value": 0.223}]}]}
